# Assays:
# [1] = test system: tyrosine kinase (TK); assay: Tyrosine kinase (TK) activity of HL-60 leukemia cells; format: cell-based, human; conditions: 24 hours
# Protocol: H-60 leukemia cells were plated at a density of 5×10^5 cells in […], and divided control and treatments groups for incubation 24 hours at 37° C. with 5% CO2. The cells were collected and washed twice with phosphate-buffered saline and re-suspended at density of 10^6 cells/ml in 5 mM HEPEs buffer (pH 7.4). The cells were then re-suspended in 1 ml of buffer containing 5 mM HEPES (pH 7.6), 1 mM MgCl2 and 1 mM EDTA, then placed on ice bath. The cell membrane was disrupted by ultra sound and centrifuged at 1000×g for 10 minutes. The supernatant was ultra centrifuged at 30,000×g for 30 minutes at 4° C. The pellet was re-suspended in 0.3 ml of buffer containing 25 mM HEOES, centrifuged at 12,000×g for 5 minutes. The resulting supernatant was used for TK assay. Content of protein was determined. 10 μg of protein placed in 20 mM HEPES (pH 7.6), 15 mM MgCl2, 10 mM ZnCl2 and 5% (v/v) Nonidet P-40. After 5 minutes incubation at 25° C., the reaction was initiated by the addition of 25 μM [γ^32P] ATP (3 ci/mmol). After 10 minutes, the reaction was stopped by the addition of 20 mM cold ATP. […] Radioactivity was determined by liquid scintillation spectrometry. The net TK activity was determined after correcting for endogenous TK activity.
# [2] = test system: L1210 leukemia cells; assay: Anti-leukemia activity against lymphoid leukemia L1210 in mice (survival); format: in vivo; conditions: Example 54; i.p. once a day; dose 1, 10, 20 mg/kg/day, group not stated
# Protocol: Animals: Adult DBA/2J male mice, 6 to 8 weeks old. All animals weighed approximately 25 g when used in experiments. Mice were assigned randomly to treatment and control groups. Each member of which received identical dosed (i.p.) of PK or 0.9% NaCl solution for all injections. Volumes were 0.01 ml/g body weight.
# Tumor: L1210 or P388 leukemia cells induced in mice by inoculation with L1210 or P388 leukemia cells (1.0×10^5).
# The leukemia cells were passed i.p. weekly. L1210 or P388 cells were cultured at 37° C. in RPMI-1640 medium (GIBCO) without antibiotics and supplemented with 10% fetal calf serum.
# After the tumor implantation (1×10^5 leukemia cells), PK was injected intraperitoneally once a day. The treatment was started between the end of 2nd and 6th day after inoculation. Dose of PK was 25 mg/kg/day for PK groups. Control mice were treated with same value of 0-9% NaCl. Anti-leukemia activity was expressed as T/C %. T is median survival days of treated group and C is that of control group. A T/C value was greater that 100% means the treated mice is surviving longer than the control mice. […] The statistical significance of data was determined by student's test. […]
# After the tumor implantation (1×10^5 leukemia cells), PK-HHT-SSL was injected intraperitoneally once a day. […] Anti-leukemia activity was expressed as T/C %. […] The statistical significance of data was determined by student's test.
# [3] = test system: tumor S-180; assay: Stained dead tumor cells in peritoneal fluid of tumor-bearing mice (CUR); format: in vivo; conditions: 12th day of tumor S-180 inoculation
# Source text: The acceptable criterion for determining the anti-tumor efficacy of the free CUR and PK-CUR-NP are the determination of the life span prolongation.
# The number of dead cells in the peritoneal fluid of mice treated with PK-CUR-NP increased life span when compared to free CUR.
smiles,measurement,setting,value
"COC(=O)C[C@](O)(CCCC(C)(C)O)C(=O)O[C@@H]1C(OC)=C[C@]23CCCN2CCc2cc4c(cc2[C@H]13)OCO4 [HHT, Homoharringtonine]",% of control activity (TK),[1]; Concentration 10^−6 M,20.8%
same,% of control activity (TK),[1]; Concentration 10^−7 M,14.8%
same,Survival time,[2],15.6 ± 2.8 days
"C=C1C[C@@]2(O)O[C@@]3(C[C@H]2C(C)C)[C@@H](C)CC[C@@H]13 [CUR, Curcumol]",Number of stained dead tumor cells (1 × 10^6 cells mL^−1),[3],5.36 ± 0.95 1 × 10^6 cells mL^−1
